Measured values reported in US10561702B2, “Method for the treatment of skin disorders using dipeptide diaminobutyroyl benzylamide diacetate” (DSM IP ASSETS B.V., priority 2015, dated 2020).
Several values for one entry are separate records, joined by “and”; a condition that tells them apart may be missing. Equal values may be shown once.

Tests used:
DPP4 = biological target: T1, DPP4 (Homo sapiens, UniProt P27487); assay: Dipeptidyl Peptidase 4 (DPP4) protease assay (DPP4 Drug Discovery Kit, fluorogenic substrate H-Gly-Pro-AMC); type: biochemical; details: for DPP4 activity: % activity remaining
T1 construct: purchased Enzo Life Sciences
T1 sequence (P27487 whole entry): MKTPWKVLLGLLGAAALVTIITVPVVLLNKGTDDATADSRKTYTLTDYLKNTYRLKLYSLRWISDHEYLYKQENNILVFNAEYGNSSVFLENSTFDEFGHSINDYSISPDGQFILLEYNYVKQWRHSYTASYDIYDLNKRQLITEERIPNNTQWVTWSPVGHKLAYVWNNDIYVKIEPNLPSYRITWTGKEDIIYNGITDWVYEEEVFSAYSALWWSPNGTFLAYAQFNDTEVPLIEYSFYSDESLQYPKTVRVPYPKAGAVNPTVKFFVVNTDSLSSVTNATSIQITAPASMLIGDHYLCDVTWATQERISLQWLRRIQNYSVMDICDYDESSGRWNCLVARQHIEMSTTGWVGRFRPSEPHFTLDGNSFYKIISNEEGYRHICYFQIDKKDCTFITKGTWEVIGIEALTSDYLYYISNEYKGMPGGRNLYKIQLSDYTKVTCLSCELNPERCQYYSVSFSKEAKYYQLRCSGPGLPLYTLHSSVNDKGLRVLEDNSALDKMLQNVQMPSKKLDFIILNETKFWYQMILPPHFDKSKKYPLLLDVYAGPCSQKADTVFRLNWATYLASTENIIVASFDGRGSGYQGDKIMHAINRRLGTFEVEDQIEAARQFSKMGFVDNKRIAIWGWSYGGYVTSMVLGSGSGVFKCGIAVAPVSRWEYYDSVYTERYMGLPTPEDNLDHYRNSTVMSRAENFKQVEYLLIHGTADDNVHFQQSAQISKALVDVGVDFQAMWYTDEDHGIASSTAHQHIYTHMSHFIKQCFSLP
Method: 1. Dipeptiyl Peptidase 4 (DPP4) Protease Assay Method
The potential of H-(beta-Ala)-Pro-Dab-NH-benzyl [CAS 823202-99-9], respectively N-Pal-Gly-His-Lys [147732-56-7]/N-Pal-Gly-Gln-Pro-Arg [221227-05-0] (2:1) to inhibit DPP4 was tested using the DPP4 Drug Discovery Kit from Enzo Life Sciences. In brief: DPP4 is pre-incubated for 10 minutes with inhibitors and then added to a quenched fluorogenic substrate (H-Gly-Pro-AMC). Cleavage of the AMC-moiety from the c-terminus of the peptide substrate by DPP4 increases its fluorescence intensity at 460 nm. The AMC signal is then recorded using a fluorescence microplate reader at Ex/Em=380/460 every minute for a total time of 20 min. A “best fit” line is generated with the data points of the first 10-20 min and the slope calculated. The remaining activity in the presence of inhibitor was calculated as follows: % activity remaining (with inhibitor)=(slope of inhibitor-sample/slope of control-sample)*100.

human sebaceous glands = assay: Ex vivo assay with sebaceous glands (organ culture, total lipid quantification); type: cell-based; details: day 6; for Total fat quantification, Average (1-12): average of 12 SG test samples, untreated 17.5
Excerpt: 2. Ex Vivo Assay with Sebaceous Glands (SG)
Organ culture of human sebaceous glands has been performed in order to verify the modulatory activity of H-(beta-Ala)-Pro-Dab-NH-benzyl on sebum secretion. A viability test has been performed in parallel. Human sebaceous glands from skin sample od labia minora have been used (donor). The epidermis of the full thickness sample has been carefully removed and the sebaceous glands have been micro-dissected.
The sebaceous glands have been pooled in groups of eight and cultured up to day 6. SGs are cultured in 24 well plate immersed in 500 μl of SGs medium (modified Williams'E medium). After 24 hours the culture medium has been changed and substituted with the medium containing the substance to be tested. The medium has been renewed at day 3 and 5 of culture. At day 6 the glands have been collected and used for the quantification of lipids and proteins. Briefly the SGs have been homogenized in isopropyl alcohol (IPOH) in order to extract lipids and let the protein undissolved. An aliquot of IPOH has been withdrawn to measure the lipids whereas the rest has been evaporated in a vacuum centrifuge. The remaining dry pellet has been minced again in presence of protein lysis buffer. The lipids dissolved in IPOH and the protein dissolved in the lysis buffer have been quantified by infrared spectroscopy (Millipore Direct Detect). The total lipid amount has been obtained by normalizing the quantified lipids upon the quantified proteins (i.e. mg of lipids/mg of proteins).

Compound	DPP4 activity (DPP4; 0.77 ppm / 1.56 μM) [%]	DPP4 activity (DPP4; 1.55 ppm / 3.13 μM) [%]	DPP4 activity (DPP4; 3.10 ppm / 6.25 μM) [%]	DPP4 activity (DPP4; 6.19 ppm / 12.50 μM) [%]	DPP4 activity (DPP4; 12.39 ppm / 25.00 μM) [%]	DPP4 activity (DPP4; 24.78 ppm / 50.00 μM) [%]	DPP4 activity (DPP4; 49.55 ppm / 100.00 μM) [%]	DPP4 activity (DPP4; 99.10 ppm / 200.00 μM) [%]	Effect on DPP4 (in words) (DPP4; summary of tables 1 and 2)	Total fat quantification, Average (1-12) (human sebaceous glands; 10 μM) [mg lipid/mg protein]	Total fat quantification, Average (1-12) (human sebaceous glands; 5 μM) [mg lipid/mg protein]	Total fat quantification (human sebaceous glands; 5 μM, single SG test samples 1-12)
H-(beta-Ala)-Pro-Dab-NH-benzyl	74	58	40	24	14	7	4	2	capable to inhibit DPP4	14.2		
COc1cc(CNC(=O)CCCC/C=C/C(C)C)ccc1O [Capsaicin]											15.5	15.8 mg lipid/mg protein and 15.7 mg lipid/mg protein and 15.5 mg lipid/mg protein and 15.6 mg lipid/mg protein and 15.4 mg lipid/mg protein and 15.3 mg lipid/mg protein and 15.1 mg lipid/mg protein
